Measured values reported in PubChem BioAssay (NCI).
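Each compound was tested at five concentrations against cells in 96-well plates for 48 hours. Definition used: TGI = concentration required for complete inhibition of growth.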

Experiments:
Assay in all cases: inhibition of tumour cell growth, NCI panel, 48 h
[1] = test system: KM12 colon
[2] = test system: MDA-MB-435
[3] = test system: OVCAR-5 ovarian
[4] = test system: NCI-H23 lung
[5] = test system: LOX IMVI melanoma
[6] = test system: SN12C renal
[7] = test system: 786-0 renal
[8] = test system: A498 renal
[9] = test system: HOP-92 NSCLC
[10] = test system: A549 NSCLC
[11] = test system: COLO 205 colon
[12] = test system: SK-MEL-2 melanoma
[13] = test system: NCI/ADR-RES ovarian
[14] = test system: T-47D breast
[15] = test system: SNB-19 CNS
[16] = test system: UACC-257 melanoma
[17] = test system: HCT-116 colon
[18] = test system: SR leukemia
[19] = test system: EKVX NSCLC
[20] = test system: HOP-62 NSCLC
[21] = test system: HCT-15 colon
[22] = test system: MOLT-4 leukemia
[23] = test system: MDA-N
[24] = test system: M14 melanoma
[25] = test system: SK-MEL-5 melanoma
[26] = test system: DU-145 prostate
[27] = test system: SW-620 colon
[28] = test system: BT-549 breast
[29] = test system: MDA-MB-231 breast
[30] = test system: HL-60(TB) leukemia
[31] = test system: SNB-75 CNS
[32] = test system: HCC-2998 colon
[33] = test system: NCI-H460 lung
[34] = test system: OVCAR-3 ovarian
[35] = test system: PC-3 prostate
[36] = test system: U251 CNS
[37] = test system: MALME-3M melanoma
[38] = test system: OVCAR-4 ovarian
[39] = test system: CCRF-CEM leukemia
[40] = test system: NCI-H226 lung
[41] = test system: IGROV1 ovarian
[42] = test system: UO-31 renal
[43] = test system: SK-MEL-28 melanoma
[44] = test system: K-562 leukemia
[45] = test system: UACC-62 melanoma
[46] = test system: TK-10 renal
[47] = test system: ACHN renal
[48] = test system: CAKI-1 renal
[49] = test system: OVCAR-8 ovarian
[50] = test system: HT29 colon
[51] = test system: HS 578T breast
[52] = test system: SK-OV-3 ovarian
[53] = test system: SF-539 CNS
[54] = test system: MCF7 breast
[55] = test system: SF-295 CNS
[56] = test system: NCI-H522 lung
[57] = test system: SF-268 CNS
[58] = test system: RXF 393 renal
[59] = test system: RPMI-8226 leukemia

COc1ccc(CCCNC(=O)Cc2cc(OC)c(OC)cc2CO)cc1OC
TGI [1]: > 100 µM | TGI [2]: > 100 µM | TGI [3]: > 100 µM | TGI [4]: > 100 µM | TGI [5]: > 100 µM | TGI [6]: > 100 µM | TGI [7]: > 100 µM | TGI [8]: > 100 µM | TGI [9]: > 100 µM | TGI [10]: > 100 µM | TGI [11]: > 100 µM | TGI [12]: > 100 µM | TGI [13]: > 100 µM | TGI [14]: > 100 µM | TGI [15]: > 100 µM | TGI [16]: > 100 µM | TGI [17]: > 100 µM | TGI [18]: > 100 µM | TGI [19]: > 100 µM | TGI [20]: > 100 µM | TGI [21]: > 100 µM | TGI [22]: > 100 µM | TGI [23]: > 100 µM | TGI [24]: > 100 µM | TGI [25]: > 100 µM | TGI [26]: > 100 µM | TGI [27]: > 100 µM | TGI [28]: > 100 µM | TGI [29]: > 100 µM | TGI [30]: > 100 µM | TGI [31]: > 100 µM | TGI [32]: > 100 µM | TGI [33]: > 100 µM | TGI [34]: > 100 µM | TGI [35]: > 100 µM | TGI [36]: > 100 µM | TGI [37]: > 100 µM | TGI [38]: > 100 µM | TGI [39]: > 100 µM | TGI [40]: > 100 µM | TGI [41]: > 100 µM | TGI [42]: > 100 µM | TGI [43]: > 100 µM | TGI [44]: > 100 µM | TGI [45]: > 100 µM | TGI [46]: > 100 µM | TGI [47]: > 100 µM | TGI [48]: > 100 µM | TGI [49]: > 100 µM | TGI [50]: > 100 µM | TGI [51]: > 100 µM

COC(=O)/C1=C/c2c([nH]c3ccccc23)/C(C(=O)OC)=C\c2c1[nH]c1ccccc21
TGI [1]: > 50 µM | TGI [2]: > 50 µM | TGI [3]: > 50 µM | TGI [4]: > 50 µM | TGI [5]: > 50 µM | TGI [6]: > 50 µM | TGI [7]: > 50 µM | TGI [8]: > 50 µM | TGI [52]: > 50 µM | TGI [10]: > 50 µM | TGI [11]: > 50 µM | TGI [12]: > 50 µM | TGI [13]: > 50 µM | TGI [14]: > 50 µM | TGI [15]: > 50 µM | TGI [16]: > 50 µM | TGI [17]: > 50 µM | TGI [19]: > 50 µM | TGI [20]: > 50 µM | TGI [21]: > 50 µM | TGI [23]: > 50 µM | TGI [24]: > 50 µM | TGI [25]: > 50 µM | TGI [26]: > 50 µM | TGI [53]: > 50 µM | TGI [27]: > 50 µM | TGI [54]: > 50 µM | TGI [55]: > 50 µM | TGI [28]: > 50 µM | TGI [29]: > 50 µM | TGI [33]: > 50 µM | TGI [34]: > 50 µM | TGI [36]: > 50 µM | TGI [37]: > 50 µM | TGI [40]: > 50 µM | TGI [41]: 38.9 µM | TGI [56]: 22 µM | TGI [42]: > 50 µM | TGI [57]: > 50 µM | TGI [45]: > 50 µM | TGI [46]: > 50 µM | TGI [47]: > 50 µM | TGI [48]: > 50 µM | TGI [49]: > 50 µM | TGI [58]: 33.3 µM | TGI [51]: > 50 µM

NS(=O)(=O)c1nnc(NS(=O)(=O)c2ccc(F)cc2)s1
TGI [1]: > 100 µM | TGI [2]: > 100 µM | TGI [3]: > 100 µM | TGI [4]: > 100 µM | TGI [5]: > 100 µM | TGI [6]: > 100 µM | TGI [7]: > 100 µM | TGI [8]: > 100 µM | TGI [9]: > 100 µM | TGI [52]: > 100 µM | TGI [10]: > 100 µM | TGI [11]: > 100 µM | TGI [12]: > 100 µM | TGI [59]: > 100 µM | TGI [13]: > 100 µM | TGI [14]: > 100 µM | TGI [15]: > 100 µM | TGI [16]: > 100 µM | TGI [17]: > 100 µM | TGI [18]: > 100 µM | TGI [19]: > 100 µM | TGI [20]: > 100 µM | TGI [21]: > 100 µM | TGI [22]: > 100 µM | TGI [23]: > 100 µM | TGI [24]: > 100 µM | TGI [25]: > 100 µM | TGI [26]: > 100 µM | TGI [53]: > 100 µM | TGI [27]: > 100 µM | TGI [54]: > 100 µM | TGI [55]: > 100 µM | TGI [28]: > 100 µM | TGI [29]: > 100 µM | TGI [32]: > 100 µM | TGI [33]: > 100 µM | TGI [34]: > 100 µM | TGI [36]: > 100 µM | TGI [38]: > 100 µM | TGI [39]: > 100 µM | TGI [40]: > 100 µM | TGI [42]: > 100 µM | TGI [43]: > 100 µM | TGI [44]: > 100 µM | TGI [57]: > 100 µM | TGI [45]: > 100 µM | TGI [46]: > 100 µM | TGI [47]: > 100 µM | TGI [48]: > 100 µM | TGI [49]: > 100 µM | TGI [58]: > 100 µM | TGI [51]: > 100 µM

Cc1nn(C(=O)c2ccccc2O)c2c1C(c1ccco1)SC(N)=N2 (configuration not stated)
TGI [1]: > 10 µM | TGI [2]: > 10 µM | TGI [3]: > 10 µM | TGI [4]: > 10 µM | TGI [5]: > 10 µM | TGI [6]: > 10 µM | TGI [7]: > 10 µM | TGI [8]: > 10 µM | TGI [9]: > 10 µM | TGI [52]: > 10 µM | TGI [10]: > 10 µM | TGI [11]: > 10 µM | TGI [12]: > 10 µM | TGI [59]: > 10 µM | TGI [13]: 8.16 µM | TGI [14]: > 10 µM | TGI [15]: > 10 µM | TGI [16]: > 10 µM | TGI [17]: > 10 µM | TGI [18]: > 10 µM | TGI [19]: > 10 µM | TGI [20]: 6.8 µM | TGI [21]: > 10 µM | TGI [22]: > 10 µM | TGI [23]: > 10 µM | TGI [24]: > 10 µM | TGI [26]: > 10 µM | TGI [53]: > 10 µM | TGI [27]: > 10 µM | TGI [55]: > 10 µM | TGI [28]: > 10 µM | TGI [29]: > 10 µM | TGI [30]: > 10 µM | TGI [31]: > 10 µM | TGI [33]: > 10 µM | TGI [34]: > 10 µM | TGI [35]: > 10 µM | TGI [36]: > 10 µM | TGI [37]: > 10 µM | TGI [38]: > 10 µM | TGI [39]: > 10 µM | TGI [40]: > 10 µM | TGI [41]: > 10 µM | TGI [42]: > 10 µM | TGI [43]: > 10 µM | TGI [44]: > 10 µM | TGI [57]: > 10 µM | TGI [45]: 6 µM | TGI [46]: > 10 µM | TGI [47]: > 10 µM | TGI [48]: > 10 µM | TGI [49]: > 10 µM | TGI [58]: > 10 µM | TGI [50]: > 10 µM | TGI [51]: > 10 µM

Cc1ccc(S(=O)(=O)NC(C(=O)O)C(C)C)cc1 (configuration not stated)
TGI [1]: > 100 µM | TGI [2]: > 100 µM | TGI [3]: > 100 µM | TGI [4]: > 100 µM | TGI [5]: > 100 µM | TGI [6]: > 100 µM | TGI [7]: > 100 µM | TGI [8]: > 100 µM | TGI [9]: > 100 µM | TGI [10]: > 100 µM | TGI [12]: > 100 µM | TGI [13]: > 100 µM | TGI [14]: > 100 µM | TGI [15]: > 100 µM | TGI [16]: > 100 µM | TGI [17]: > 100 µM | TGI [18]: > 100 µM | TGI [19]: > 100 µM | TGI [20]: > 100 µM | TGI [21]: > 100 µM | TGI [22]: > 100 µM | TGI [23]: > 100 µM | TGI [24]: > 100 µM | TGI [25]: > 100 µM | TGI [26]: > 100 µM | TGI [27]: > 100 µM | TGI [55]: > 100 µM | TGI [28]: > 100 µM | TGI [29]: > 100 µM | TGI [31]: > 100 µM | TGI [32]: > 100 µM | TGI [33]: > 100 µM | TGI [34]: > 100 µM | TGI [35]: > 100 µM | TGI [36]: > 100 µM | TGI [37]: > 100 µM | TGI [38]: > 100 µM | TGI [39]: > 100 µM | TGI [40]: > 100 µM | TGI [41]: > 100 µM | TGI [56]: > 100 µM | TGI [42]: > 100 µM | TGI [43]: > 100 µM | TGI [44]: > 100 µM | TGI [57]: > 100 µM | TGI [45]: > 100 µM | TGI [46]: > 100 µM | TGI [47]: > 100 µM | TGI [48]: > 100 µM | TGI [49]: > 100 µM | TGI [58]: > 100 µM | TGI [50]: > 100 µM | TGI [51]: > 100 µM
